Source: paper PMC10427817, “Bioactivities of β-mangostin and its new glycoside derivatives synthesized by enzymatic reactions” (Royal Society Open Science, 2023)
Converted amounts (≈) assume the structure as drawn. Read-outs that look alike come from different tables or passages of the source.

Key:
[1] = system: Staphylococcus aureus; assay: Anti-microbial activity assay, S. aureus; assay type: cell-based; details: S. aureus
Experimental: (§1) Bacterial and fungal strains (Bacillus subtilis, Staphylococcus aureus, Lactobacillus fermentum, Escherichia coli, Pseudomonas aeruginosa, Salmonella enterica and Candida albicans) were activated on TSA (Tryptic Soy Agar) and SA (Sabouraud–4% dextrose agar) media, respectively. Before the experiment, the microbial strains were grown in the corresponding liquid media at a concentration of approximately 5 × 10^5 CFU ml^−1 for bacteria and 1 × 10^3 CFU ml^−1 for fungi. The microbial suspension (190 µl) was mixed with 10 µl of the test sample, which was serially diluted twofold, and the microplate was incubated at 37°C for 16–24 h.

[2] = system: MCF-7 cell line; parameters: method as in doi:10.1016/j.jff.2013.10.018; details: cited from earlier work
[3] = system: Bacillus subtilis; assay: Anti-microbial activity assay, B. subtilis; assay type: cell-based; details: B. subtilis
Experimental: as §1

[4] = system: Enterococcus (VRE; vancomycin-resistant strain); parameters: method as in PMID 22494050; details: cited from earlier work
[5] = system: HeLa cervical cancer cells; parameters: method as in PMID 26781450; details: cited from earlier work
[6] = system: S. aureus (MRSA; methicillin-resistant strain); parameters: method as in PMID 22494050; details: cited from earlier work
[7] = molecular target: T1, α-glucosidase (Saccharomyces cerevisiae, UniProt P53341); assay: Alpha-glucosidase inhibitory assay; assay type: biochemical
T1 construct: purchased Sigma
T1 sequence (P53341 whole entry): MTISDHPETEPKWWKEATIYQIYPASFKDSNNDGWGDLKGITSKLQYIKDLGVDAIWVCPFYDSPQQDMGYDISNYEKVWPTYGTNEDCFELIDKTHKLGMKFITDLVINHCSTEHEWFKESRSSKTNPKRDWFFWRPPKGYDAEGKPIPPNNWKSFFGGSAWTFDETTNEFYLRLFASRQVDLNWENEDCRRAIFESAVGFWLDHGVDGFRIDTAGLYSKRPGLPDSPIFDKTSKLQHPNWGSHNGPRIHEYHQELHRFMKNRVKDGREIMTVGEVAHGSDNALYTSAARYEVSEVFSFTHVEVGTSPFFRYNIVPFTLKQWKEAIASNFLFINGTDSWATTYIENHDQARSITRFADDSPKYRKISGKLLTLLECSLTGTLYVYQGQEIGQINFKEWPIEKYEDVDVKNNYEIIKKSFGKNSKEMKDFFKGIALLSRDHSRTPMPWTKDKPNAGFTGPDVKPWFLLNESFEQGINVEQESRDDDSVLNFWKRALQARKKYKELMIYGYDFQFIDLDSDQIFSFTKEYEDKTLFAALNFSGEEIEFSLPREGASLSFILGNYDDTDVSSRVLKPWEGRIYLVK
Experimental: Beta-mangostin and α-mangostin were purchased from Chengdu Biopurify Phytochemicals, Ltd. Recombinant Escherichia coli (BL21 (DE3)) strains were kindly provided by Prof. Jae Kyung Sohng, Sun Moon University, Korea. The cell lines and microorganisms were derived from the American Type Culture Collection (ATCC). α-Glucosidase (CAS no. 900-42-7, Sigma) was from Saccharomyces cerevisiae. All chemicals were of analytical grade and available.
The α-glucosidase inhibitory activity assay was conducted using a reaction mixture containing phosphate buffer (100 mM; pH 6.8), p-nitrophenyl-α-D-glucopyranoside (pNPG) (2.5 mM) and samples at various concentrations. The reactions were initiated by adding α-glucosidase (0.2 U ml^−1), incubated at 37°C for 30 min and quenched by adding Na2CO3 (50 mM). The absorbance of the reaction was determined using a BioTek instrument at a wavelength of 410 nm (A).

[8] = molecular target: AChE (Homo sapiens, UniProt P22303); assay: Acetylcholinesterase inhibitory activity assay; assay type: biochemical; details: AChE 0.25 IU ml^−1, ATCI/DTNB, mean ± s.d., three replicates
AChE, sequence (P22303 32-614): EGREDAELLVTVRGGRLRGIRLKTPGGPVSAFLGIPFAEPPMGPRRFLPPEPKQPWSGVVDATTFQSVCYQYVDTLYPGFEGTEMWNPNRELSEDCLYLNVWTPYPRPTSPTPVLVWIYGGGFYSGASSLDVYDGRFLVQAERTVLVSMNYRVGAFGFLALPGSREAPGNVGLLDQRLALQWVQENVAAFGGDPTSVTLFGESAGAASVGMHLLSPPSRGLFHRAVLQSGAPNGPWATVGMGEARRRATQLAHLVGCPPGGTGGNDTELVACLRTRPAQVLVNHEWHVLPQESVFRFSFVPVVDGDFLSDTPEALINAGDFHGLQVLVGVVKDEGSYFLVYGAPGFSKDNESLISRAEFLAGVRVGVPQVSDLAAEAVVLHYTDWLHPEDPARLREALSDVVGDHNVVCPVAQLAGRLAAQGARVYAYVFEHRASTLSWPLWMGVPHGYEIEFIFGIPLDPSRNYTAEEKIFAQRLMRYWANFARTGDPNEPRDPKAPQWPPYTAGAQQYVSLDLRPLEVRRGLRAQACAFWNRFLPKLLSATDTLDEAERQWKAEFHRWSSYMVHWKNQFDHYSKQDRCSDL
Experimental: For the assay, acetylthiocholine iodide (ATCI) was used as a substrate for the reaction and 5,5′-dithiobis-(2-nitrobenzoic acid) (DTNB) was used to measure AChE activity. The reaction (200 µl) on a 96-well plate was performed by mixing Tris–Cl buffer (pH 8.0), tested sample in a twofold serial dilution, AChE (0.25 IU ml^−1) and incubating at 25°C, 15 min before adding 2.4 mM DTNB and 2.4 mM ATCI.

[9] = system: KB, MCF-7, A549, HepG2, HEK293 cell lines; assay: MTT cytotoxicity assay, range over all tested cell lines; assay type: cell-based, human; details: Homo sapiens; range over all tested cell lines, MTT, 72 h
Experimental: (§2) The cytotoxic activities against the cancer cell lines KB epidermal carcinoma, A549 lung cancer, HepG2 liver cancer and MCF-7 breast cancer, as well as the healthy cell line HEK293 embryonic kidney cells, were determined using the 3-(4,5-dimethylthiazol-2-yl)-2,5-diphenyltetrazolium bromide (MTT) assay. Briefly, cell lines were grown into log phase at 37°C, 5% CO2 in DMEM-Dulbecco's modified Eagle's medium and 10% fetal bovine serum. A concentration of 1 × 10^4–3 × 10^4 cells ml^−1 was prepared depending on the cell line used for the experiment by adding 10 µl of the sample and 190 µl of the cell suspension, followed by incubation under standard conditions. After 72 h of culture, 10 µl of MTT (5 mg ml^−1) was added and incubated for 4 h. Dimethyl sulfoxide (100 µl) was added to dissolve formazan crystals and the density was measured at 540 nm using a BioTek spectrophotometer. The inhibition of cell growth was expressed as IC50 (the half-maximal inhibitory concentration) value. Ellipticine was used as reference.

[10] = system: T89G cells; parameters: method as in PMID 34896543; details: T89G glioma cells; read-out: IC50, cell survival; cited from earlier work
[11] = system: Salmonella enterica; assay: Anti-microbial activity assay, S. enterica; assay type: cell-based
Experimental: as §1

[12] = system: HepG2 liver cancer; assay: MTT cytotoxicity assay, HepG2; assay type: cell-based, human; details: Homo sapiens, HepG2 cell line, 72 h, mean ± s.d., three replicates
Experimental: as §2

[13] = system: U251 cells; parameters: method as in PMID 34896543; details: U251 glioma cells; read-out: IC50, cell survival; cited from earlier work
[14] = system: Lactobacillus fermentum; assay: Anti-microbial activity assay, L. fermentum; assay type: cell-based; details: L. fermentum
Experimental: as §1

[15] = system: Escherichia coli; assay: Anti-microbial activity assay, E. coli; assay type: cell-based
Experimental: as §1

[16] = system: A549 lung cancer; assay: MTT cytotoxicity assay, A549; assay type: cell-based, human; details: Homo sapiens; A549 cell line, MTT, 72 h, mean ± s.d., three replicates; read-out: IC50
Experimental: as §2

## COc1cc2oc3cc(O)c(OC)c(CC=C(C)C)c3c(=O)c2c(O)c1CC=C(C)C [β-mangostin]
[1]; read-out: IC50
  IC50: 1.24 ± 0.05 µg/mL (≈ 2.92 µM)
[1]; read-out: MIC
  MIC: > 32 µg/mL
[2]; MCF-7, 24 h treatment
  IC50: 26 µM
[2]; MCF-7, 48 h treatment
  IC50: 16.5 µM
[3]; read-out: IC50
  IC50: 0.16 ± 0.01 µg/mL (≈ 0.377 µM)
[3]; read-out: MIC
  MIC: 0.5 µg/mL (≈ 1.18 µM)
[4]
  MIC: > 200 µg/mL
[5]
  IC50: 27.2 µM
[6]
  MIC: > 200 µg/mL
[7]
  IC50: 27.6 ± 4.6 µM
[7]; compared with the positive control acarbose
  inhibitory potency ratio: 7.55
[8]
  IC50: 2.17 ± 0.18 µM
[9]
  IC50: 15.4 to 21.1 µM
[10]
  IC50: 10.3 µM
[11]
  IC50: > 32 µg/mL
  MIC: > 32 µg/mL
[12]
  IC50: 18.9 ± 7.6 µM
[13]
  IC50: 5.8 µM
[14]; read-out: IC50
  IC50: 0.18 ± 0.01 µg/mL (≈ 0.424 µM)
[14]; read-out: MIC
  MIC: 0.5 µg/mL (≈ 1.18 µM)
[15]
  MIC: greater than 32 μg ml^−1
[15]; Escherichia coli
  IC50: > 32 µg/mL
[15]; Escherichia coli, read-out: MIC
  MIC: > 32 µg/mL
[16]
  IC50: 15.4 ± 5.1 µM
